Assays:
[1] = biological target: T1, human B1R receptor (hB1R) (Homo sapiens, UniProt P46663); test: Functional investigation on the bradykinin receptor 1 (B1R), FLIPR Ca2+ assay, hB1R cells; format: cell-based
T1 construct: expressed in transfected cells; host or cells: CHO K1 cells
T1 sequence (P46663 1-353): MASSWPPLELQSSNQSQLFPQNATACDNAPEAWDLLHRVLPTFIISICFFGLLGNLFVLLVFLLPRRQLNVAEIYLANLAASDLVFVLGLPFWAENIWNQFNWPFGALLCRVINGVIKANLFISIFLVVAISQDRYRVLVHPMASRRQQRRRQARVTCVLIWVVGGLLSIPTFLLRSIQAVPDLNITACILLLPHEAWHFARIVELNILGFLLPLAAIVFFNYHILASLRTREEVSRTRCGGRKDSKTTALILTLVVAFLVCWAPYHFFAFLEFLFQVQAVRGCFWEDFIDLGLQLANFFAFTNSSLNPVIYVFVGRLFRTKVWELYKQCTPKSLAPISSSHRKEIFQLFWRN
Procedure, shortened: (§1)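 Stably transfected CHO K1 cells expressing human or rat B1R were loaded with Fluo-4, and Ca2+ fluorescence was read on a FLIPR. Compound (10 μM) was added first to measure activation. After 10–20 min, agonist at EC80 was added (Lys-Des-Arg9-bradykinin for hB1R, Des-Arg9-bradykinin for rB1R) to give % inhibition. IC50 values came from concentration series.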

[2] = biological target: T2, B1R receptor of the rat (rB1R) (Rattus norvegicus, UniProt P97583); test: Functional investigation on the bradykinin receptor 1 (B1R), FLIPR Ca2+ assay, rB1R cells; format: cell-based
T2 construct: expressed in transfected cells; host or cells: CHO K1 cells
T2 sequence (P97583 1-337): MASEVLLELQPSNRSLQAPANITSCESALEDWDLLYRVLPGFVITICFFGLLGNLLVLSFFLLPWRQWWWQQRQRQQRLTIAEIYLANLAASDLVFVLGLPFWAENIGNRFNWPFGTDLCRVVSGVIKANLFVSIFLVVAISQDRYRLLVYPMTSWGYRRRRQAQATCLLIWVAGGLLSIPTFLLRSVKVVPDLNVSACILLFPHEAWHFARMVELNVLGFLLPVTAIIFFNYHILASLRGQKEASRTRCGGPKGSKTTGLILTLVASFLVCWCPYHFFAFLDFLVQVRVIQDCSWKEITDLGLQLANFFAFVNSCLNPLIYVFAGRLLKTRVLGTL
Procedure, shortened: as §1

SMILES | inhibition at 10 µM [1] [%] | inhibition at 10 µM [2] [%]
COc1cc(C)c(S(=O)(=O)N(C)Cc2nc3cccc(C(=O)N4CCC5(CCC(N6CC(F)(F)C6)CC5)CC4)c3[nH]2)c(C)c1 [I_05, N-[[7-[9-(3,3-difluoro-azetidin-1-yl)-3-azaspiro[5.5]undecane-3-carbonyl]-1H-benzoimidazol-2-yl]-methyl]-4-methoxy-N,2,6-trimethyl-benzenesulfonic acid amide] | 55 | 72
COc1cc(C)c(S(=O)(=O)N(C)C(C)c2nc3cccc(C(=O)N4CCC5(CC4)CCN(C(=O)C4CC4)CC5)c3[nH]2)c(C)c1 (stereo not drawn) [I_CC-50, N-[1-[7-[9-(Cyclopropanecarbonyl)-3,9-diazaspiro[5.5]undecane-3-carbonyl]-1H-benzoimidazol-2-yl]-ethyl]-4-methoxy-N,2,6-trimethyl-benzenesulfonic acid amide] | 62 | 88
CN(Cc1nc2cccc(C(=O)N3CCC4(CC3)CCN(c3ccncc3)C4)c2[nH]1)C(=O)c1sccc1Cl [I_CC-09, 3-chloro-N-methyl-N-[[7-(3-pyridin-4-yl-3,8-diazaspiro[4.5]decane-8-carbonyl)-1H-benzoimidazol-2-yl]-methyl]-thiophene-2-carboxylic acid amide] | 15 | 58
COc1cc(C)c(S(=O)(=O)N(C)Cc2nc3cccc(C(=O)N4CCC5(CCC(Oc6ccncc6)CC5)CC4)c3[nH]2)c(C)c1 [I_03, 4-methoxy-N,2,6-trimethyl-N-[[7-(9-pyridin-4-yloxy-3-azaspiro[5.5]undecane-3-carbonyl)-1H-benzoimidazol-2-yl]-methyl]-benzenesulfonic acid amide] | 99 | 86
COc1cc(C)c(S(=O)(=O)N(C)Cc2nc3cccc(C(=O)N4CCC5(CC4)CCN(c4ccncc4)CC5)c3[nH]2)c(C)c1 [I_CC-03, 4-methoxy-N,2,6-trimethyl-N-[[7-(3-pyridin-4-yl-3,9-diazaspiro[5.5]undecane-9-carbonyl)-1H-benzoimidazol-2-yl]-methyl]-benzenesulfonic acid amide] | 100 | 100

Results, then the compound that gave them:

inhibition at 10 µM [1] [%] | inhibition at 10 µM [2] [%] | SMILES
77 | 93 | COc1cc(C)c(S(=O)(=O)N(C)C(C)c2nc3cccc(C(=O)N4CCC5(CCN(C(=O)c6ccc(F)cc6Cl)CC5)CC4)c3[nH]2)c(C)c1 (stereo not drawn) [I_CC-52, N-[1-[7-[9-(2-Chloro-4-fluoro-benzoyl)-3,9-diazaspiro[5.5]undecane-3-carbonyl]-1H-benzoimidazol-2-yl]-ethyl]-4-methoxy-N,2,6-trimethyl-benzenesulfonic acid amide]
15 | 101 | COc1cc(C)c(S(=O)(=O)N(C)C(C)c2nc3cccc(C(=O)N4CCC5(CC4)CCN(S(=O)(=O)c4ccc(Cl)s4)CC5)c3[nH]2)c(C)c1 (stereo not drawn) [I_CC-56, N-[1-[7-[9-[(5-Chloro-thiophen-2-yl)sulfonyl]-3,9-diazaspiro[5.5]undecane-3-carbonyl]-1H-benzoimidazol-2-yl]-ethyl]-4-methoxy-N,2,6-trimethyl-benzenesulfonic acid amide]
98 | 101 | COc1cc(C)c(C(=O)N(C)Cc2nc3cccc(C(=O)N4CCC5(CC4)CCN(c4ccncc4)C5)c3[nH]2)c(C)c1 [I_CC-24, 4-methoxy-N,2,6-trimethyl-N-[[7-(3-pyridin-4-yl-3,8-diazaspiro[4.5]decane-8-carbonyl)-1H-benzoimidazol-2-yl]-methyl]-benzamide]
63 | 92 | COc1cc(C)c(S(=O)(=O)N(C)C(C)c2nc3cccc(C(=O)N4CCC5(CC4)CCN(C(=O)c4cc(C(C)(C)C)nn4C)CC5)c3[nH]2)c(C)c1 (stereo not drawn) [I_CC-54, N-[1-[7-[9-(5-tert-Butyl-2-methyl-2H-pyrazole-3-carbonyl)-3,9-diazaspiro[5.5]undecane-3-carbonyl]-1H-benzoimidazol-2-yl]-ethyl]-4-methoxy-N,2,6-trimethyl-benzenesulfonic acid amide]
